From patent publication US10414778B2, “Methods for treatment of resistant cancer” (New Mexico Tech University Research Park Corporation, priority 2016, dated 2019) come the findings set out here.

The subject of one experiment is A549 cells. The experiment can be described thus: MTT growth inhibition, A549 NSCLC. The format is cell-based, human. As for the experimental part: Human cancer cell lines were obtained from the American Type Culture Collection (ATCC, Manassas, Va., USA), the European Collection of Cell Culture (ECACC, Salisbury, UK), and the Deutsche Sammlung von Mikroorganismen und Zellkulturen (DSMZ, Braunschweig, Germany). Human cervical adenocarcinoma HeLa cells were cultured in DMEM supplemented with 10% fetal bovine serum (FBS). Human mammary carcinoma MCF-7 cells were cultured in RPMI supplemented with 10% FBS. The U87 cells (ATCC HTB-14) were cultured in DMEM culture medium, while the A549 cells (DSMZ ACC107) were cultured in RPMI culture medium supplemented with 10% heat-inactivated FBS. The GBM Hs683 (ATCC HTB-138) and the T98G (ATCC CRL-1690) cell lines were cultivated in DMEM supplemented with 10% FBS. The GBM U251 cells (ECACC code 09063001) were cultured in 10% MEM. The human uterine sarcoma MES-SA and MES-SA/Dx5 cells were cultured in RPMI-1640 medium supplemented with 10% FBS with MES SA/Dx5 maintained in the presence of 500 nM Doxorubicin (Sigma™). The U373 glioblastoma cells (ECACC 08061901) were cultured in RPMI culture medium supplemented with 10% heat-inactivated FBS.
All compounds were dissolved in DMSO at a concentration of either 100 mM or 50 mM prior to cell treatment. The cells were trypsinized and seeded at various cell concentrations depending on the cell type. The cells were grown for 24 h to 72 h, treated with compounds at concentrations ranging from 0.001 to 100 μM, and incubated for 48, 72, or 96 h in 100 or 200 μL media depending on the cell line used. Cells treated with 0.1% DMSO were used as a negative control, and cells treated with 1 μM phenyl arsine oxide (PAO) were used as a positive control.
Drug-resistant cell lines (i.e., glioma: Hs683, U373, U251, U87, T98G; lung cancer: A549, H2073; uterine carcinoma: MES-SA/Dx5) were complemented with drug-sensitive cell lines, H1993 lung cancer and MES-SA uterine cancer, which were used as controls. […] The GI50 values were calculated after 48-96 hours of treatment with the indicated compounds in replicate using the MTT growth assay.
Compounds 5l and 5g were further tested using the A549 lung cancer cell line to determine a dose-response effect on apoptosis-resistant cells. (FIGS. 4-7). […] The MTT assay was performed in four replicates after 48 hours of treatment with the indicated compounds relative to a DMSO control.

The subject of the next experiment is H1993 cells. The experiment can be described thus: Combination treatment with paclitaxel, CellTiter-Glo viability, Bliss Independence. It is filed as cell-based, human. To be noted: 96 h, FIG. 2. The protocol:
Spirodienone 4l was evaluated against patient-derived NSCLC cell line H1993 and its drug-resistant variant, H2073. The patient-derived NSCLC cell line […] was obtained from a regrown tumor at a primary site after a patient relapsed several months later.
Paclitaxel (Teva™) was dissolved in polyethoxylated castor oil. Compound 4l was dissolved in DMSO. The compound was diluted to different concentrations in medium. Appropriate numbers of cells (4×10^3 cells per well for H1993, 7×10^3 cells per well for H2073) were seeded into 96-well plates. […] After 96 h, viability of cells was assessed using the CellTiter-Glo® Luminescent Cell Viability Assay (Promega™), according to the manufacturer's instructions. Predicted additivity was calculated based on Bliss Independence, as defined by Exy=Ex+Ey−ExEy, where Exy is the additive effect of drugs x and y as predicted by the individual effects Ex and Ey.
FIG. 2 and FIG. 3 illustrate the synergism against H1993 cells.

For the next experiment, the system named is GBM 090909 cells. The experiment can be described thus: MTT growth inhibition, primary GBM-derived neurosphere culture GBM 090909. The format is cell-based. To be noted: Homo sapiens, Table 3, 48-96 h treatment, read-out: GI50 in vitro values, glioma GBM 090909. As for the experimental part: (§1) Cell culture media were supplemented with 4 mM glutamine (Lonza code BE17-605E), 100 μg/mL gentamicin (Lonza code 17-5182), and penicillin-streptomycin (200 units/ml and 200 μg/ml) (Lonza code 17-602E). Primary GBM-derived neurosphere cultures from a patient undergoing surgical debulking were established using previously described methods. Briefly, resected tumor tissue was minced with a sterile scalpel and dissociated in 3 mL of neurobasal (NB) media containing 100 U/mL of collagenase (Life Technologies™) for 30 minutes at 37° C. Dissociated tissue was then vortexed and filtered using a sterile 70 um nylon Falcon™ cell strainer (Corning™). […]
(§2) Compound 4l was evaluated for in vitro growth inhibition against a panel of cancer cell lines, including U373, U251, U87, T98G, human GBM, and A549 NSCLC. […] Compound 4l was also evaluated for in vitro growth inhibition against the apoptosis-sensitive tumor model Hs683 anaplastic oligodendroglioma as a reference.

A further experiment relates to GBM 031810 cells. The experiment can be described thus: MTT growth inhibition, primary GBM-derived neurosphere culture GBM 031810. It is filed as cell-based. To be noted: Homo sapiens, Table 3, 48-96 h treatment, read-out: GI50 in vitro values, glioma GBM 031810. The protocol: as §1, §2

Take `O=C1C=C[C@]23CC[N@](Cc4c2sc2ccccc42)[C@H]3C1` [Compound 5l]: the “anti-proliferative activity, dose-response (absorbance at 595 nm)” value in the experiment with A549 cells (48 hours, up to 100 μM, FIGS. 4-7) was “inhibited proliferation of the cells in a dose-dependent manner”. The 50% growth inhibitory concentration (GI50) with A549 cells (Homo sapiens, Table 5, 48-96 hours of treatment, read-out: GI50, Lung Cancer A549) is 4 µM.

With `O=C1C=CC2(C=C1)CCN(C(=O)C(F)(F)F)Cc1c2sc2ccccc12` [Compound 4l], the “synergism with paclitaxel in antiproliferative action” value with H1993 cells is on record as “synergize with paclitaxel”. Further, the GI50 with GBM 090909 cells was determined as 7 µM; in the experiment on GBM 031810 cells, 8 µM.
